Experimental data taken from patent US6514997B2, “Antipicornaviral compounds and compositions, their pharmaceutical uses, and materials for their synthesis” (Agouron Pharmaceuticals, Inc., priority 1999, dated 2003).

Columns and labels:
[1] = Cytotoxicity (CC50) in mock-infected H1-HeLa cells, XTT dye reduction; assay type: cell-based, human; details: human; for CC50 at 1 day: CVB3
In short: (§1)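 XTT dye reduction (formazan, 450/650 nm) in H1-HeLa cells, mock-infected, gave CC50.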

[2] = tested on: H1-HeLa cells; assay: as above; assay type: cell-based, human
In short: as §1

[3] = tested on: Coxsackievirus type A-21 (CAV-21); assay: Anticoxsackieviral cell culture assay (XTT, EC50), CAV-21; assay type: cell-based, coxsackievirus A-21 in H1-HeLa cells; details: Coxsackievirus, H1-HeLa
Description: Anticoxsackieviral Cell Culture Assay:
Coxsackievirus types A-21 (CAV-21) and B3 (CVB3) were purchased from American Type Culture Collection (ATCC, Rockville, Md.). Virus stocks were propagated and antiviral assays were performed in H1-HeLa cells (ATCC). Cells were grown in minimal essential medium with 10% fetal bovine serum (Life Technologies, Gaithersburg, Md.). The ability of the compounds of this invention to protect cells against either CAV-21 or CVB3 infection was measured by the XTT dye reduction method. This method is described in Weislow et al., J. Natl. Cancer Inst. (1989), vol. 81, 577-586. H1-HeLa cells were infected with CAV-21 or CVB3 at a multiplicity of infection (m.o.i.) of 0.025 or 0.075, respectively, or mock-infected with medium only. H1-HeLa cells were plated at 4×10^4 cells per well in a 96-well plate and incubated with appropriate concentrations of the test compound. One day (CVB3) or two days (CAV-21) later, XTT/PMS was added to test plates and the amount of formazan produced was quantified spectrophotometrically at 450/650 nm. […] The therapeutic index (TI) was calculated by dividing the CC50 by the EC50.

[4] = H1-HeLa cells, mock-infected, HRV-14
[5] = mock-infected (uninfected) H1-HeLa cells, CAV-21
[6] = mock-infected (uninfected) H1-HeLa cells

Row | Compound | CC50 at 2 days [1, 4] [µM] | CC50 at 2 days [1, 5] [µM] | CC50 at 1 day [1, 6] [µM] | CC50 ([2]; HRV-1A) [µM] | CC50 ([2]; HRV-2) [µM] | CC50 ([2]; HRV-3) [µM] | CC50 ([2]; HRV-9) [µM] | CC50 ([2]; HRV-10) [µM] | CC50 ([2]; HRV-11) [µM] | CC50 ([2]; HRV-13) [µM] | CC50 ([2]; HRV-16) [µM] | CC50 ([2]; HRV-19) [µM] | CC50 ([2]; HRV-23) [µM] | CC50 ([2]; HRV-25) [µM] | CC50 ([2]; HRV-39) [µM] | CC50 ([2]; HRV-78) [µM] | CC50 ([2]; HRV-Hanks) [µM] | EC50 [3] [µM]
1 | CC[C@@H](C(=O)N[C@H](/C=C/C(=O)OCc1ccccc1)C[C@@H]1CCNC1=O)n1cccc(NC(=O)c2cc(C)on2)c1=O [Compound 62, trans-(2′S,3′″″S,4S)-4-[2′-(3″-{[1′″-(5″″-Methylisoxazol-3″″-yl)methanoyl]amino}-2′″oxo-2′″H-pyridin-1′″-yl)butanoylamino]-5-(2′″″-oxopyrrolidin-3′″″-yl)pent-2-enoic Acid Benzyl Ester] | > 10 | > 10 | > 10 | > 10 | > 10 | > 10 | > 10 | > 10 | > 10 | > 10 | > 10 | > 10 | > 10 | > 10 | > 10 | > 10 | > 10 | 0.298
2 | C#CC[C@@H](C(=O)N[C@H](/C=C/C(=O)OCc1ccccc1)C[C@@H]1CCNC1=O)n1cccc(NC(=O)c2cc(C)on2)c1=O [Compound 63, trans-(2′S,3′″″S,4S)-4-[2′-(3″-{[1′″-(5″″-Methylisoxazol-3″″-yl)methanoyl]amino}-2′″-oxo-2′″H-pyridin-1′″-yl)pent-4″-ynoylamino]-5-(2′″″-oxopyrrolidin-3′″″-yl)pent-2-enoic Acid Benzyl Ester] | > 10 | > 10 | > 10 | > 10 | > 10 | > 10 | > 10 | > 10 | > 10 | > 10 | > 10 | > 10 | > 10 | > 10 | > 10 | > 10 | > 10 | 0.153
